The values below come from US5807875A, “Amino acid derivatives, pharmaceutical compositions containing these compounds and processes for preparing them” (Dr. Karl Thomae GmbH, priority 1993, dated 1998).

In one data set the target is T1, NPY-Y1 receptor (Homo sapiens, UniProt P25929).
T1 construct: SK-N-MC cells (expressing the human Y1 -receptor); endogenous in cells; host or cells: SK-N-MC (human cell line), whole cells in suspension
T1 sequence (P25929 1-384): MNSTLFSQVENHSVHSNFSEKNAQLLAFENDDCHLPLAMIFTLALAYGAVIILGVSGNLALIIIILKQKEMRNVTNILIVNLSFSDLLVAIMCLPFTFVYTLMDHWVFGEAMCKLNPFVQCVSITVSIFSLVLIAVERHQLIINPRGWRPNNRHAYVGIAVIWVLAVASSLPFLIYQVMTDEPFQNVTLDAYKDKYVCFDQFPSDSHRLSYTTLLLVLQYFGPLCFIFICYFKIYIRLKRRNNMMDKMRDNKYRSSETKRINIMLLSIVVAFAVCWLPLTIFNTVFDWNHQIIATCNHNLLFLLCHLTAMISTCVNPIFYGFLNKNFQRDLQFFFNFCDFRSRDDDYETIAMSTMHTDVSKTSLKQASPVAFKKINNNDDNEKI
As to the kind of experiment: Studies of binding with SK-N-MC cells (displacement of [^125 I]-Bolton-Hunter-NPY). Conditions: SK-N-MC cells expressing the human Y1-receptor, 3 hours at ambient temperature. The procedure: A. Studies of binding with SK-N-MC cells (expressing the human Y1 -receptor)
Incubation is ended by centrifuging (10 minutes at 3000×gand 4° C.). After washing once with PBS, the radioactivity of the pellet is measured in a gamma counter. […] The proportion of non-specific binding is defined as that radioactivity which is bound in the presence of 1 μM NPY. The IC50 values of the unlabelled test substances are determined graphically.

Data set [1] concerns NPY-induced blood pressure effects. Description: In vivo NPY-antagonism (pithed rats). Particulars: Rattus norvegicus, iv, 1 min, inhibition of increase in diastolic blood pressure by NPY (10 μg/kg, i.v.), NPY given one minute after test substance, read-out: pID50 (the source's name) (converted). As to the method: C. In vivo NPY-antagonism
Male rats of normal blood pressure (Chbb:THOM, 300 to 350 g) are anaesthetised with sodium hexobarbital (150 mg/kg, i.p.). After intubation of the trachea the animals are pithed by introducing a blunt needle through the eye into the spinal bone marrow channel. The animals are ventilated with oxygen-rich ambient air using a respiratory pump (20 strokes/minute). A cannula is inserted in the left carotid artery and the arterial blood pressure is measured using a pressure gauge (Braun Melsungen Combitrans) connected to a recording device. For injection purposes a catheter is placed in the left jugular vein through which heparin is administered (200 IU/kg, i.v.). After the blood pressure has been stabilised, the animals are given 2 bolus injections of NPY (10 μg/kg, i.v.) at intervals of 15 minutes. The average increase in diastolic blood pressure is taken as the reference value (=100%). The test substances are injected in increasing doses (4 to 6 doses) at intervals of 15 minutes. One minute after administration of the test substance, NPY is administered.
The antagonistic effect of the test substances is determined by plotting the percentage inhibition of the NPY-induced blood pressure effects against the logarithm of the concentration of active substance.

For a further data set, the system named is NPY activity. As to the kind of experiment: NPY-antagonism in vitro (isolated perfused rat kidney). Conditions: inhibition of NPY (1 μM bolus) induced pressure increase, 5 minute infusion of compound. The procedure:
B. NPY-antagonism in vitro
Male rats (CHbb: THOM, 300 to 350 g) are given heparin (100 IU, i.v.) and the animals are then killed by a blow to the back of the neck. The abdomen is opened along the centre of the body and the left kidney is removed after the insertion of catheters in the renal artery, renal vein and ureter. The isolated kidney is immediately perfused with a modified Krebs-Ringer solution having the following composition (4 ml/minute):
A mixture of 95% O2 /5% CO2 is passed through the solution which is kept at a temperature of 37° C. The perfusion pressure is measured continuously using a pressure gauge. After a 60 minute stabilisation period the perfusion rate is adjusted so as to obtain a perfusion pressure of approximately 100 mm Hg. After a further 30 minutes the experiment is started and NPY (1 μM) is administered as a bolus (0.1 ml) at 15 minute intervals until the pressure increase observed reaches a constant value. The compounds to be tested are given in the form of a continuous infusion over a period of 5 minutes and then NPY is injected. After a 30 minute wash-out period the next highest concentration of test substance is investigated. 3 to 5 different concentrations of the particular compound are tested on each occasion. Concentration/activity curves can be obtained by plotting the percentage inhibition of the NPY activity against the logarithm of the concentration (mol/l) of the compound.

SMILES strings stand for the structures.

Broadly, the IC50 is the concentration that inhibits the measured activity by half. Read a low IC50 as greater potency.

With `Cc1cc(CNC(=O)C(CCCNC(=N)N)NC(=O)C(c2ccccc2)c2ccccc2)ccc1O` (stereo not drawn) [E], at NPY-Y1 receptor, the IC50 is 10 nM.
`CC1(C)NC(=O)N(Cc2ccc(CNC(=O)[C@@H](CCCNC(=N)N)NC(=O)C(c3ccccc3)c3ccccc3)cc2)C1=O` [L] gave a half-maximal inhibitory concentration (IC50) at NPY-Y1 receptor of 26.8 nM.
At NPY-Y1 receptor, `N=C(N)NCCC[C@@H](NC(=O)C(c1ccc(Br)cc1)c1ccc(Br)cc1)C(=O)NCc1ccc(O)cc1` [A] registered an IC50 of 1.8 nM.
In the case of `Cc1cc(CNC(=O)C(CCCNC(=N)N)NC(=O)C(c2ccccc2)c2ccccc2)cc(C)c1O` (stereo not drawn) [I], on NPY-Y1 receptor, the IC50 is 26 nM.
Same read-out and setting: with `N=C(N)CCCCC(NC(=O)C(c1ccccc1)c1ccccc1)C(=O)NCc1ccc(O)cc1` (stereo not drawn) [P] the figure was 39 nM.
Same read-out and setting: with `O=C(NCc1ccc(O)cc1)C(Cc1ccc(C2=NCCN2)cc1)NC(=O)C(c1ccccc1)c1ccccc1` (stereo not drawn) [O] the figure was 207 nM; with `N=C(N)NCCC[C@@H](NC(=O)C(c1ccccc1)c1ccccc1)C(=O)NCc1ccc(CCO)cc1` [B], 7.7 nM; with `O=C(Nc1ccc2ccccc2c1)NC(CCCNc1ncc[nH]1)C(=O)NCc1ccc(O)cc1` (stereo not drawn) [N], 85.5 nM.
As to `N=C(N)NCCC[C@@H](NC(=O)C(c1ccccc1)c1ccccc1)C(=O)NCc1ccc(CN)cc1.O=C(O)C(F)(F)F.O=C(O)C(F)(F)F` [Example 128, (R)-N-[[4-(Aminomethyl)phenyl]methyl]-N^2-(diphenylacetyl)-argininamide-bis-(trifluoroacetate)], the solubility in dichloromethane entry in the data set “Solubility” (dichloromethane) is reported as “readily soluble”. The solubility in dimethylsulphoxide result in “Solubility” (dimethylsulphoxide) is “readily soluble”. Besides, the solubility in methanol result in “Solubility” (methanol) was “readily soluble”. For the same molecule, the solubility in water entry in the data set “Solubility” (water) is “readily soluble”.
On NPY-Y1 receptor, `O=C(NCc1ccc(O)cc1)C(CCCNc1ncc[nH]1)NC(=O)C(c1ccccc1)c1ccccc1` (stereo not drawn) [H] showed an IC50 of 18 nM.
For `COc1ccc(CNC(=O)C(CCCNC(=N)N)NC(=O)C(c2ccccc2)c2ccccc2)cc1` (stereo not drawn) [K], the ED50 in data set [1] is 0.331 µmol/kg. On NPY-Y1 receptor, this molecule returned an IC50 of 32 nM. In the data set on NPY activity, this molecule came in with a pIC50 of 6.70 mol/l.
`O=C(NC(CCCNc1ncc[nH]1)C(=O)NCc1ccc(O)cc1)c1ccc2ccccc2c1` (stereo not drawn) [M] gave a half-maximal inhibitory concentration (IC50) on NPY-Y1 receptor of 80.5 nM.
In the case of `N=C(N)NCCC[C@@H](NC(=O)C(c1ccccc1)c1ccccc1)C(=O)NCc1ccc(O)cc1` [C], in data set [1], the ED50 is 0.186 µmol/kg. The molecule further came in with a pIC50 with NPY activity of 7.15 mol/l.
As to `CN(Cc1ccc(O)cc1)C(=O)[C@@H](CCCNC(=N)N)NC(=O)C(c1ccccc1)c1ccccc1` [G], the IC50 on NPY-Y1 receptor came out at 25.3 nM.
As to `N=C(N)c1cccc(CC(NC(=O)C(c2ccccc2)c2ccccc2)C(=O)NCc2ccc(O)cc2)c1` (stereo not drawn) [F], the ED50 in data set [1] was 0.151 µmol/kg. Further, at NPY-Y1 receptor, the IC50 stood at 11.3 nM. The molecule also displayed a pIC50 with NPY activity of 7.70 mol/l.
For the molecule `N=C(N)NCCC[C@@H](NC(=O)C(c1ccccc1)c1ccccc1)C(=O)NCc1ccc(CO)cc1` [D], the concentration for half-maximal inhibition (IC50) on NPY-Y1 receptor turned out to be 13.5 nM.
